Experiment [1] deals with Human Glucocorticoid Receptor (GR) (Homo sapiens (Human), UniProt P04150). The experiment can be described thus: Human Glucocorticoid Receptor (GR) radioligand binding assay (competition with 3H-labeled Dexamethasone). The settings on record: full length GR, 7 nM 3H-dexamethasone, 2 h at room temperature; read-out: GR Hu Bind Filter Mean Control IC50. How it is done: Human Glucocorticoid Receptor (GR) Assay
The radioligand GR binding assay is based on a competition assay using ^3H-labeled Dexamethasone, Dexamethasone is known to bind in the ligand binding domain of GR and compete for binding with endogenous ligands like e.g. cortisol (Necela, 2003).
In the GR radioligand binding assay, test compounds were serially diluted in semi-log steps (10 concentrations) with a final concentration of 10 μM. Test compounds (1 μL) and controls (1 μL) in 100% DMSO were added to 96 Greiner V-bottom polypropylene plates. 0% control was 6.7% DMSO (final concentration in assay) and 100% control was 6.7 μM Dexamethasone.
The full length GR was diluted to a final concentration of 3.3% (0.495 mg/ml) in assay buffer (20 mM Tris-HCl, 1 mM EDTA, 10% (w/v) Glycerol, 20 mM Sodium molbydate, pH 7.4). 45 μL of GR was added to each well and the plates were incubated for 15 min at room temperature.
^3H-dexamethasone solution was diluted to a concentration of 70 nM in assay buffer (7 nM final assay concentration) and 5 μL was added to each well. The samples were mixed for 5 min using a plate shaker at 700 rpm, before incubation for 2 h at room temperature,
50 μL ice-cold charcoal solution (pH 7.4: 2% Charcoal, 0.2% Dextran T70 in 20 mM Tris-HCl, 1 mM EDTA and 20 mM Sodium molbydate) was'added to each well and the samples were mixed on plate shaker for 5 minutes.
The plate was then centrifuged for 1.5 min at 1500 rpm, the samples (80 μL) were transferred from each well to a filter plate (Millipore, 0.45 μm, MHVBN45) on a vacuum manifold and then collected into new plates (Greiner, 96 well white/transparent, 655095). The filter plate was washed once with 20 μl of water and then 100 μL of scintillation liquid was added to each well and mixed by incubation on plate shaker for 5 min. Radioactivity was measured in a 1450 Microbeta Trilux Reader (Wallac) counting cpm for 2 minutes per well. The data obtained from each replicate experiment were analysed using the software ActivityBase, version 5.4.3 (ID Business Solutions Ltd) and IC50 values were calculated. Ref: Necela, B M, Cidlowski, J A, Trends Pharmacol Sci, 24: 58, 2003

For experiment [2], the system named is AP-1/TRE-activity in ChaGo-K-1 cells transfected with 5×TRE-LacZ. In words: Transrepression Reporter Gene Assay (TRE-LacZ transfected ChaGo-K-1 cells, PMA stimulated). The experiment is classed as cell-based, human. The settings on record: PMA 10 ng/ml, Dexamethasone 10^-6 M set as 100 percent control, read-out: Agonism TRE IC50. The procedure:
Transrepression Reporter Gene Assay
The human bronchogenic carcinoma cell-line, ChaGo-K-1 (ATCC: HTB 168), were transfected with 5×TRE-LacZ (clone 16:15:5 s5), i.e. TRE transfected cells, to measure transrepression activity of the selected compounds. Before use, the cells were grown for one to two weeks in selection medium containing 0.7 mg geneticin (G418)/ml medium. The cells were cultured at 37° C., 5% CO2 and 100% humidity in 96 well microtiter plates in RPMI-medium complemented with 10% fetal calf serum, 1% non-essential amino acids and 1% sodium pyruvate. The cells were passaged once weekly.
The TRE transfected cells were seeded in 96 well plates with 25-30 000 cells/well and grown for 72-96 h, to reach about 80% confluence. To stimulate the upregulation of the AP-1/TRE-activity, the cells were stimulated with 10 ng/ml Phorbol Myristate acetate (PMA) 3-5 h prior to addition of compounds. The PMA was present during the whole experiment. The TRE mediated effects (transrepression) in the transfected ChagGo-K-1 cells was measured as downregulation of β-galactosidase activity. The β-galactosidase activity for the transrepression experiments was measured by a fluorometric assay performed in microtiter plates. Cells were washed once in PBS. 180 μl of a reaction mixture containing 5 parts of Z-buffer and one part 4-methylumbelliferyl-β-D-galactosidase (MUG)-solution was then added (150 μl Z-buffer [18 μl 0.6 M Na2HPO4, 12 μl 0.6 M NaH2PO4, 7.2 μl 0.25 M KCl, 18 μl 0.01 M MgSO4, 1.8 μl 10% Triton X-100, 93 μl H2O]+30 μl 3 mM 4-methylumbelliferyl-[…]). After 60 min incubation at 37° C., 70 μl stop buffer was added to each well and the fluorescence was read in a fluorometer (Spectramax Gemini) with emission filter at 460 nm and excitation filter at 360 nm. The TRE activity was calculated as the relative activity compared to cells not treated with compounds. Inhibition of β-galactosidase by the compounds is expressed as percent inhibition compared to Dexamethasone 10^−6 M set as a 100 percent control within each experiment and DMSO 0.1% set as background control. The effect of Dexamethasone is well documented in this system and was therefore chosen as a positive control for comparison of the potency and efficacy of the compounds.

Where [3] appears, read: Homo sapiens, ChaGo-K-1, downregulation of β-galactosidase activity.

pIC50: −log10 of the molar value. Read-outs that look alike come from different tables or passages of the source.

Chain of Human Glucocorticoid Receptor (GR) (P04150 whole entry, the tested form may be a part): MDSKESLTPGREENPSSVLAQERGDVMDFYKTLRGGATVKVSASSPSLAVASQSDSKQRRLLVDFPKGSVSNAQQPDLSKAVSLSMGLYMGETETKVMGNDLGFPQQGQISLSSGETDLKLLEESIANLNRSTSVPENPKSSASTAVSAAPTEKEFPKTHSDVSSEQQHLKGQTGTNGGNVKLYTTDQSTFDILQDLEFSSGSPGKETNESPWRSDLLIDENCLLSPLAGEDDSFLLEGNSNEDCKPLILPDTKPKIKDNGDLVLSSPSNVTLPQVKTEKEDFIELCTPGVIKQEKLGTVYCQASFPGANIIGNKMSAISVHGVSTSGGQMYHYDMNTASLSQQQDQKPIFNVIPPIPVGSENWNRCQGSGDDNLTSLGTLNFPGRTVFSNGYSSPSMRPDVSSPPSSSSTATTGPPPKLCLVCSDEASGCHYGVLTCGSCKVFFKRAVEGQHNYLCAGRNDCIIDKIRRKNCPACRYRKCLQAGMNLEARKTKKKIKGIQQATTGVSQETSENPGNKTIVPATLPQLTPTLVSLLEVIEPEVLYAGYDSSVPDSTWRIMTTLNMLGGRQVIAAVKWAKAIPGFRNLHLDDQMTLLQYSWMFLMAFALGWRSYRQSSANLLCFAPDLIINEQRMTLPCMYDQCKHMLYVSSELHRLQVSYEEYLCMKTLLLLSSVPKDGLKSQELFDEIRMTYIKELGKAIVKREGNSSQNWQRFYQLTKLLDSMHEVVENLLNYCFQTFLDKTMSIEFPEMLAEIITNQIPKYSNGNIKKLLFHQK

`C[C@H](NC(=O)C(C)(F)F)[C@H](Oc1ccc2c(cnn2-c2cccc(C(=O)N[C@H]3CC[S+]([O-])C3)c2)c1)c1ccc2c(c1)OCOC2` (single isomer, unassigned) [Example 15]: the pIC50 in experiment [1] is 8.44; in experiment [2] (setting [3]) it was 9.30. For `C[C@H](NC(=O)C(C)(F)F)[C@H](Oc1ccc2c(cnn2-c2cccc(C(=O)N[C@H]3CC[S+]([O-])C3)c2)c1)c1ccc2c(c1)OCOC2` (single isomer, unassigned) [Example 16], the pIC50 is 8.37 in experiment [1] and 9.22 in experiment [2] (downregulation of β-galactosidase activity).

As for `C[C@H](NC(=O)C(C)(F)F)[C@H](Oc1ccc2c(cnn2-c2cccc(C(=O)N[C@@H]3CCS(=O)(=O)C3)c2)c1)c1ccc2c(c1)OCOC2` [Example 3, 3-[5-({(1R,2S)-1-(4H-1,3-Benzodioxin-7-yl)-2-[(2,2-difluoropropanoyl)amino]propyl}oxy)-1H-indazol-1-yl]-N-[(3R)-1,1-dioxidotetrahydrothiophen-3-yl]benzamide], the pIC50 in experiment [2] (setting [3]) is 9.46. The same measure, in the same setting: under `C[C@H](NC(=O)C(C)(F)F)[C@H](Oc1ccc2c(cnn2-c2cccc(C(=O)N[C@H]3CCS(=O)(=O)C3)c2)c1)c1ccc2c(c1)OCOC2` [Example 4, 3-[5-({(1R,2S)-1-(4H-1,3-benzodioxin-7-yl)-2-[(2,2-difluoropropanoyl)amino]propyl}oxy)-1H-indazol-1-yl]-N-[(3S)-1,1-dioxidotetrahydrothiophen-3-yl]benzamide] stands 9.13. Consider `C[C@H](NC(=O)C(C)(F)F)[C@H](Oc1ccc2c(cnn2-c2cccc(C(=O)NC3CCCC3)c2)c1)c1ccc2c(c1)OCCO2` [Example 7, N-cyclopentyl-3-(5-{[(1R,2S)-2-[(2,2-difluoropropanoyl)amino]-1-(2,3-dihydro-1,4-benzodioxin-6-yl)propyl]oxy}-1H-indazol-1-yl)benzamide], for which the pIC50 in experiment [1] is 8.89; in experiment [2] (setting [3]), 9.79. The corresponding values for `C[C@H](NC(=O)C(C)(F)F)[C@H](Oc1ccc2c(cnn2-c2cccc(C(=O)NC3CCCC3)c2)c1)c1ccc2c(c1)OCOC2` [Example 8, 3-[5-({(1R,2S)-1-(4H-1,3-benzodioxin-7-yl)-2-[(2,2-difluoropropanoyl)amino]propyl}oxy)-1H-indazol-1-yl]-N-cyclopentylbenzamide] are 9.10 and 9.41.

Take `C[C@H](NC(=O)C(C)(F)F)[C@H](Oc1ccc2c(cnn2-c2cccc(C(=O)N[C@@H]3CCC[C@@H]3O)c2)c1)c1ccc2c(c1)OCCO2` [Example 10, 3-(5-{[(1R,2S)-2-[(2,2-difluoropropanoyl)amino]-1-(2,3-dihydro-1,4-benzodioxin-6-yl)propyl]oxy}-1H-indazol-1-yl)-N-[(1R,2S)-2-hydroxycyclopentyl]benzamide]: the pIC50 in experiment [1] is 9.19; in experiment [2] (setting [3]) it was 9.95. As to `CC[C@@H](O)CNC(=O)c1cccc(-n2ncc3cc(O[C@H](c4ccc5c(c4)OCOC5)[C@H](C)NC(=O)C(C)(F)F)ccc32)c1` [Example 11, 3-[5-({(1R,2S)-1-(4H-1,3-benzodioxin-7-yl)-2-[(2,2-difluoropropanoyl)amino]propyl}oxy)-1H-indazol-1-yl]-N-[(2R)-2-hydroxybutyl]benzamide], the pIC50 in experiment [1] was 8.67; in experiment [2] (setting [3]), 9.29. Turning to `C[C@H](NC(=O)C(C)(F)F)[C@H](Oc1ccc2c(cnn2-c2cccc(C(=O)N[C@@H]3CCC[C@@H]3O)c2)c1)c1ccc2c(c1)OCOC2` [Example 14, 3-[5-({(1R,2S)-1-(4H-1,3-benzodioxin-7-yl)-2-[(2,2-difluoropropanoyl)amino]propyl}oxy)-1H-indazol-1-yl]-N-[(1R,2S)-2-hydroxycyclopentyl]benzamide], the results for the negative-log IC50 (pIC50) in experiment [1] and in experiment [2] (setting [3]) were 8.76 and 9.84, respectively. The corresponding values for `C[C@H](NC(=O)C(C)(F)F)[C@H](Oc1ccc2c(cnn2-c2cccc(C(=O)NCc3ccccc3)c2)c1)c1ccc2c(c1)OCOC2` [Example 17, 3-[5-({(1R,2S)-1-(4H-1,3-benzodioxin-7-yl)-2-[(2,2-difluoropropanoyl)amino]propyl}oxy)-1H-indazol-1-yl]-N-benzylbenzamide] are 9.00 and 9.12.

In the case of `C[C@H](NC(=O)C(C)(F)F)[C@H](Oc1ccc2c(cnn2-c2cccc(C(=O)N[C@H]3CCC[C@@H]3O)c2)c1)c1ccc2c(c1)OCOC2` [Example 18, 3-[5-({(1R,2S)-1-(4H-1,3-benzodioxin-7-yl)-2-[(2,2-difluoropropanoyl)amino]propyl}oxy)-1H-indazol-1-yl]-N-[(1S,2S)-2-hydroxycyclopentyl]benzamide], the pIC50 in experiment [1] was 8.46; in experiment [2] (setting [3]) it was 9.26.

As usually defined, the pIC50 is the negative decadic logarithm of the IC50, by convention in mol/L.
